The text below walks through data of patent US4329353A (priority 1981, dated 1982).

The structures appear in SMILES notation. Structures can show the parent of a compound that is named as a salt. Where two headings read alike, the source gives them in different places. Bounds are passed on as bounds.

This assay deals with apomorphine-induced emesis. Kind of assay: animal or person. The following applies: Canis lupus familiaris, sc, 1 h. It is filed as in vivo, beagle dogs.

Regarding `CC(=O)CCN1CN(c2ccc(F)cc2)C2(CCN(C3CCC(C#N)(c4ccc(F)cc4)CC3)CC2)C1=O` (single isomer, unassigned) [CH2 CH2 COCH3, B, HCl . H2 O], the median effective dose (ED50) (read-out: ED50 (APO)-dog) is 2 µg/kg.
Consider `NC(=O)C1(c2ccc(F)cc2)CCC(N2CCC3(CC2)C(=O)NCN3c2ccc(F)cc2)CC1` (centres unmarked) [CONH2,4-FC6 H4,4-FC6 H4, B, base, (B)-1-(4-fluorophenyl)-4-[1-(4-fluorophenyl)-4-oxo-1,3,8-triazaspiro[4,5]dec-8-yl]cyclohexanecarboxamide], for which the ED50 (read-out: ED50 (APO)dog) was found to be 8 µg/kg.
For `N#CC1(c2ccc(F)cc2)CCC(N2CCC3(CC2)C(=O)N(C(=O)Nc2ccccc2)CN3c2ccc(F)cc2)CC1` (centres unmarked) [CONHC6 H5, B, base, (B)-8-[4-cyano-4-(4-fluorophenyl)cyclohexyl]-1-(4-fluorophenyl)-4-oxo-N-phenyl-1,3,8-triazaspiro[4,5]decane-3-carboxamide], the ED50 (read-out: ED50 (APO)-dog) is less than 160 µg/kg.
As to `COC(=O)C1(c2ccc(F)cc2)CCC(N2CCC3(CC2)C(=O)NCN3c2ccc(F)cc2)CC1` (centres unmarked) [COOCH3,4-FC6 H4,4-FC6 H4, base], for the setting “read-out: ED50 (APO)dog”, the ED50 stood at 1.8 µg/kg.
For `CNC(=S)N1CN(c2ccc(F)cc2)C2(CCN(C3CCC(C#N)(c4ccc(F)cc4)CC3)CC2)C1=O` (centres unmarked) [CSNHCH3, base, (B)-8-[4-cyano-4-(4-fluorophenyl)cyclohexyl]-1-(4-fluorophenyl)-N-methyl-4-oxo-1,3,8-triazaspiro[4,5]decane-3-carbothioamide], the 50% effective dose (ED50) (read-out: ED50 (APO)-dog) is less than 4 µg/kg.

As a reminder, the ED50 is the dose at which the effect has come halfway, by size or by number of responders.
